Reference: patent US20240360091A1, “GLUN2B-SUBUNIT SELECTIVE ANTAGONISTS OF THE N-METHYL-D-ASPARTATE RECEPTORS WITH ENHANCED POTENCY AT ACIDIC PH” (Emory University, priority 2021, published 2024)
Read-outs that look alike come from different tables or passages of the source.

Experiments:
human GluN1/GluN2B = human GluN1/GluN2B (Homo sapiens (Human), UniProt Q05586+Q13224); assay: Two electrode voltage-clamp recordings from Xenopus laevis oocytes, GluN2B potency and pH dependence; type: cell-based; details: for pH Boost: ratio of IC50 at pH 7.6 to IC50 at pH 6.9
Protocol: Two Electrode Voltage-Clamp Recordings from Xenopus laevis Oocytes
Stage V-VI Xenopus laevis unfertilized oocytes were purchased from Ecocyte (Austin, Texas) and injected with 5 ng of GluN1 and 10 ng of GluN2B cRNAs. The cDNAs for human GluN1 and GluN2B, encoding NCBI reference sequences NM_007327.3 and NM_000834.3, respectively, were linearized and cRNAs made as previously described (Traynelis et al., J Neurosci, 1998, 18(16):6163-75). After injection, the oocytes were incubated in Barth's culture solution (88 mM NaCl, 1 mM KCl, 2.4 mM NaHCO3, 10 mM HEPES, 0.82 mM MgSO4, 0.33 mM Ca(NO3)2, 0.41 mM CaCl2), 10 U/mL PenStrep, and 0.1 mg/mL gentamycin, pH 7.4) at 18° C. Two electrode voltage-clamp (TEVC) recordings were made at 22-23° C., 2-7 days after the injection, using Warner OC725C amplifiers (VHOLD=−40 mV). Briefly, the oocytes were perfused in a recording solution (90 mM NaCl, 1 mM KCl, 10 mM HEPES, 0.01 mM EDTA, and 0.5 mM BaCl2) adjusted to either pH 7.6 or 6.9 by addition of NaOH or HCl, respectively (pH 6.9 solutions were prepared by addition of HCl to pH 7.6 solutions to maintain an equal concentration of Na^+ ions in both solutions). Concentration-response curves of the compounds were obtained by application of increasing concentrations of each individual compound until steady state conditions were obtained, in the presence of saturating agonist concentrations (i.e., 100 μM glutamate and 30 μM glycine). In general, oocyte recordings were made from 4-10 oocytes per experiment (i.e., oocyte injection cycle) from ≥two experiments. The concentration-response relationship for each oocyte was fit by equation (1),
Percent Response=(100−minimum)/(1+([concentration]/IC50)^nH)+minimum (1)
where minimum is the residual response in saturating concentration of each individual compound (constrained to be ≥0), and IC50 is the concentration of compound that causes half-maximal inhibition, and nH is the Hill slope.

nonhuman primates = details: acute administration; cited from earlier work
GluN2B = details: between pH 6.8 and pH 7.5; cited from earlier work
[1] = tested on: horizontal locomotor activity of mice; assay: Locomotor activity; type: in vivo, mouse; details: 0.3 mg/kg IP, two hours
Excerpt: The locomotor and rotarod studies were approved by the Georgia State University IACUC, an AAALAC accredited institution under the supervision of licensed veterinarians. Mice were group housed, provided nestlets and shelters with access to food pellets and water ad libitum under a 12-hour light/dark cycle.
For locomotor activity measurements, mice (C57B16, >90 days old, Jackson Labs) were placed in a closed (with light on) activity monitoring box for one hour to habituate prior to drug testing. After one hour, animals were removed and injected (IP) with drug and then returned to the activity monitoring box and total locomotor activity was monitored for two hours. The total number of light beam breaks in the cage (horizontal) was determined by a computer and results averaged for each drug. Results were analyzed by ANOVA and Dunnett's post hoc test to compare horizontal activity of drug-treated groups to vehicle controls. Male animals were used for these behavioral tests given only male mice were used in the MCAO transient ischemia studies.

[2] = pH 6.9, read-out: IC50 (μM) pH 6.9
[3] = pH 7.6, read-out: IC50 (μM) pH 7.6

Chain of human GluN1/GluN2B (Q13224 27-1484, other chains not shown): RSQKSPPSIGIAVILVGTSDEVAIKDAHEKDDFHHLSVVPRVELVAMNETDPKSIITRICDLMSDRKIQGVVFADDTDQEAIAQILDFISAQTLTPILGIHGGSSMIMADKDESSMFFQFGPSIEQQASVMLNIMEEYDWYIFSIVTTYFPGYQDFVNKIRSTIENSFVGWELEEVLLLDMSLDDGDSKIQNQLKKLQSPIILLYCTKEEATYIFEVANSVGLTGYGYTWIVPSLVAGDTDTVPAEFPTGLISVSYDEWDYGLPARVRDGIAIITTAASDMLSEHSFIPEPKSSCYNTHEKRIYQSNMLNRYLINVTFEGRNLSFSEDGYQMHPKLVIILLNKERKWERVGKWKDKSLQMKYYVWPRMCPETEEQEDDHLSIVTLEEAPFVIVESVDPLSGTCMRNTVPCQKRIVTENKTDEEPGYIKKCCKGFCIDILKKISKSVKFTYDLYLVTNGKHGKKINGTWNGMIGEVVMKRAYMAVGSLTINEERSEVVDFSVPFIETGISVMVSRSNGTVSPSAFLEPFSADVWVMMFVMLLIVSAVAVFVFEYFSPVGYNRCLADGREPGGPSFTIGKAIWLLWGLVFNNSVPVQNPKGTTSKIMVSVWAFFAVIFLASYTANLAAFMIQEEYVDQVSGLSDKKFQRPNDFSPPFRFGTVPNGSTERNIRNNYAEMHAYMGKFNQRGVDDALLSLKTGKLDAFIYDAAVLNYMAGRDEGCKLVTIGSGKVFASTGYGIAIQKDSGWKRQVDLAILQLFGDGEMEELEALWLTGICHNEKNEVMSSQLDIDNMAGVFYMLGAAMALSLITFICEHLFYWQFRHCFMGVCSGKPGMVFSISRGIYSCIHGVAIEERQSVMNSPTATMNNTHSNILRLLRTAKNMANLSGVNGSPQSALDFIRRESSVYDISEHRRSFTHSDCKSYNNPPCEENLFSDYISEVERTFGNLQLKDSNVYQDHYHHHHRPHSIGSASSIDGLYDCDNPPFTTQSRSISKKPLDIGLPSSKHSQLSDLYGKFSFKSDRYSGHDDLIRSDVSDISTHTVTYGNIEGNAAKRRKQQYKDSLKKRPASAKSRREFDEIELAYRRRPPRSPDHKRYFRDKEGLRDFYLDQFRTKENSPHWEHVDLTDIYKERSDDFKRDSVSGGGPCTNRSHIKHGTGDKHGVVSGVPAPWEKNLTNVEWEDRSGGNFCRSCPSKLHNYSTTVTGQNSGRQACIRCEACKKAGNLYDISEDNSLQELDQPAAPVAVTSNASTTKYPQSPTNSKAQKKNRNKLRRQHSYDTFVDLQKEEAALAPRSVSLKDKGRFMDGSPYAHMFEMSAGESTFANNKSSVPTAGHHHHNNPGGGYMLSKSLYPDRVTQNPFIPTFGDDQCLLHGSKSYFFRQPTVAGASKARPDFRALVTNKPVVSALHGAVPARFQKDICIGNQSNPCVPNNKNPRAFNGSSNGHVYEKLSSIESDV

SMILES	IC50 (human GluN1/GluN2B; [2]) [µM]	IC50 (human GluN1/GluN2B; [3]) [µM]	pH Boost (human GluN1/GluN2B)	cognitive effects in nonhuman primates (nonhuman primates)	pH sensitivity for inhibition of receptors (GluN2B)	horizontal activity compared to the vehicle control [1]
NC(=O)Nc1ccc(OC[C@@H](O)CN2CCN(c3ccc(F)cc3)CC2)cc1 [Compound 10214]	0.221	2.18	9.9			
Cc1ccc(N2CCN(C[C@H](O)COc3ccc(O)cc3)CC2)cc1 [Compound 10040]	0.074	0.26	3.5			
CCc1ccc(N2CCN(C[C@@H](O)COc3ccc(O)cc3)CC2)cc1 [Compound 10245]	0.025	0.385	15.4			
NC(=O)Nc1ccc(OC[C@@H](O)CN2CCN(c3ccc(C(F)(F)F)cc3)CC2)cc1 [Compound 10294]	0.03	0.209	7.0			
NC(=O)Nc1ccc(OC[C@H](O)CN2CCN(c3ccc(F)cc3)CC2)cc1 [Compound 10225]	0.097	0.527	5.4			
C[C@@H]([C@@H](O)c1ccc(O)cc1)N1CCC(O)(c2ccccc2)CC1 [traxoprodil]				produced cognitive impairments in a dose-dependent manner	does not possess a significant pH sensitivity	
NC(=O)Nc1ccc(OC[C@H](O)CN2CCN(c3ccc(Cl)c(Cl)c3)CC2)cc1 [Compound 10166]	0.03	0.132	4.4			
CCCc1ccc(N2CCN(C[C@H](O)COc3ccc(NC(N)=O)cc3)CC2)cc1 [Compound 10215]	0.13	1.3	10.0			
C[C@]12N[C@H](Cc3ccccc31)c1ccccc12 [MK-801]						significant increase
CCCc1ccc(N2CCN(C[C@@H](O)COc3ccc(NC(N)=O)cc3)CC2)cc1 [Compound 10224]	0.034	0.171	5.0			
Cc1ccc(N2CCN(C[C@@H](O)COc3ccc(O)cc3)CC2)cc1 [Compound 10244]	0.047	0.305	6.5			
CCCCc1ccc(N2CCN(C[C@H](O)COc3ccc(O)cc3)CC2)cc1 [Compound 10235]	0.398	4.38	11.0			
CCc1ccc(N2CCN(C[C@@H](O)COc3ccc(NC(N)=O)cc3)CC2)cc1 [Compound 10222]	0.052	0.183	3.5			
NC(=O)Nc1ccc(OC[C@@H](O)CN2CCN(c3ccc(Cl)cc3)CC2)cc1 [Compound 10075]	0.046	0.452	9.8			
NC(=O)Nc1ccc(OC[C@H](O)CN2CCN(c3ccc(C(F)(F)F)cc3)CC2)cc1 [Compound 10272]	0.022	0.128	5.8			
CCc1ccc(N2CCN(C[C@H](O)COc3ccc(NC(N)=O)cc3)CC2)cc1 [Compound 10189]	0.094	1	10.6			
